A short description of data set [1]: Blood plasma pharmacokinetic profile of isoxazoline compounds in two chewable formulations after a single oral administration in dogs (Example 8). In kind it is in vivo. The following applies: beagle dogs; for Cmax / Tmax / AUC(0-t): dog, plasma; for AUC(0-t): read-out: AUC(0-168h). The source says: Pharmacokinetic Profile Following Oral Administration of Chewable Formulations of Isoxazoline Compounds
The objective of this study is to compare the blood plasma pharmacokinetic profile of three different isoxazoline compounds in two different chewable formulations after a single oral (PO) administration of in dogs.
The following compounds were formulated according to the invention. Specifically, the isoxazoline compound was first dissolved in a solvent, i.e. 2-pyrrolidone. This drug solution was then adsorbed onto the solid carrier, i.e. microcrystalline cellulose, which was incorporated into a solid oral dosage form as described in the specification with excipients as described in Table 3. Comparative example formulation ID No. 13-009, 13-011 and 13-013 contain the active drug substance incorporated as a solid that was manufactured as described in general in the specification without prior pre-dissolving the active ingredient and adsorption to the solid carrier.
The test compounds were administered orally to four beagle dogs per dose group for a total of twenty-four dogs.
Each animal was administered the tablet or chew by placing it in the back of the oral cavity over the tongue to initiate swallowing.
Plasma was obtained from the collected blood samples and analyzed for concentrations of the test compounds. Individual blood samples (approximately 4.5 mL per sample) were taken via jugular venipuncture into sodium-citrate tubes from all dogs for drug analysis. Blood samples were collected at the following time points: pretreatment (within 2 h prior to dosing) and approximately 1, 2, 4, 6, 8, 24, 48, 72 hours after dosing (15 min). A final blood sample was taken from each dog on Day 7 (2 h after the time of dosing on Day 0).
Pharmacokinetic analysis was performed on the plasma concentration data with the computer program Pharsight WinNonlin Enterprise, Version 4.0.1, or more recent update (Model 200: plasma data, extravascular input).

A short description of data set [2]: Solubility of the active (fluralaner) in formulation solvents. In kind it is physicochemical. Conditions: organic solvent or mixture.
[3] abbreviates: single oral dose 10 mg/kg, Alternate Chew (compound dissolved in 2-pyrrolidone).
Where [4] appears, read: single oral dose 25 mg/kg, Control Chew (compound not dissolved).

In brackets after ≈: the same amount, converted by molar mass. Where two headings read alike, the source gives them in different places.

Consider `O=C(CNC(=O)c1ccc(C2=NOC(c3cc(Cl)cc(C(F)(F)F)c3)(C(F)(F)F)C2)c2ccccc12)NCC(F)(F)F` (centres unmarked) [Compound B], for which, in data set [1] (setting [3]), the “AUC(0-168h)/Dose” value was found to be 33416 kg·ng·h/mL/mg, the Cmax/Dose stood at 321 kg·ng/mL/mg, the peak level (Cmax) was 3210 ng/mL and the Tmax (usually the time from dosing to the highest level) came out at 15.5 h. Moreover, the AUC(0-t) in data set [1] (setting [3]) was 334 µg·h/mL. In addition, in data set [1] (setting [4]), the “AUC(0-168h)/Dose” value came to 16661 kg·ng·h/mL/mg, the Cmax/Dose amounted to 174 kg·ng/mL/mg, the concentration peaked (Cmax) at 4340 ng/mL and the time of peak concentration (Tmax) was determined as 5 h. For the same compound, the AUC(0-t) in data set [1] (setting [4]) is 417 µg·h/mL.

Regarding `Cc1cc(C2=NOC(c3cc(Cl)cc(Cl)c3)(C(F)(F)F)C2)sc1C(=O)NCC(=O)NCC(F)(F)F` (centres unmarked) [Compound C], in data set [1] (setting [3]), the “AUC(0-168h)/Dose” value came out at 32660 kg·ng·h/mL/mg, the Cmax/Dose was found to be 254 kg·ng/mL/mg, the peak level (Cmax) was 2540 ng/mL and the Tmax came to 15.5 h. Further, the AUC(0-t) in data set [1] (setting [3]) was 327 µg·h/mL. In addition, in data set [1] (setting [4]), the “AUC(0-168h)/Dose” value turned out to be 6573 kg·ng·h/mL/mg, the Cmax/Dose was 63.5 kg·ng/mL/mg, the highest level (Cmax) was 1590 ng/mL and the Tmax came to 27.5 h. The AUC(0-t) in data set [1] (setting [4]) was determined as 164 µg·h/mL.

For the compound `Cc1cc(C2=NOC(c3cc(Cl)cc(Cl)c3)(C(F)(F)F)C2)ccc1C(=O)NC1CSC1` (centres unmarked) [Compound A], in data set [1] (setting [3]), the Cmax/Dose is 1.71 kg·ng/mL/mg and the Cmax (usually the maximum level reached in the sampled fluid or tissue) came to 17.1 ng/mL. In data set [1] (setting [4]), the Cmax/Dose was determined as 0.768 kg·ng/mL/mg and the Cmax worked out at 19.2 ng/mL.

Regarding `Cc1cc(C2=NOC(c3cc(Cl)cc(Cl)c3)(C(F)(F)F)C2)ccc1C(=O)NCC(=O)NCC(F)(F)F` (centres unmarked) [Compound A-1443, 4-[5-(3,5-Dichlorophenyl)-5-trifluoromethyl-4,5-dihydroisoxazol-3-yl]-2-methyl-N-[(2,2,2-trifluoro-ethylcarbamoyl)-methyl]-benzamide], the solubility (in general, the concentration that dissolves in the medium under given conditions) in data set [2] (2-pyrrolidone (2-pyrol), solvent 2-pyrrolidone, read-out: solubility in 2-pyrrolidone (2-pyrol)) was determined as 775 mg/mL (≈ 1390 mM); in data set [2] (dimethylacetamide (DMAC), solvent DMAC, read-out: solubility in dimethylacetamide (DMAC)), 792 mg/mL (≈ 1420 mM).

The values above are taken from patent US11712416B2, “Solid oral pharmaceutical compositions for isoxazoline compounds” (Intervet Inc., priority 2012, dated 2023).
